{"source": "patent US12534469B2", "about": "(CHILDREN'S HOSPITAL MEDICAL CENTER, priority 2020, dated 2026)", "key": {"FLT3 ITD, D835V": {"target": "T1, FLT3 ITD, D835V (Homo sapiens, UniProt P36888, D835V/ITD)", "T1 sequence (P36888 564-993 D835V)": "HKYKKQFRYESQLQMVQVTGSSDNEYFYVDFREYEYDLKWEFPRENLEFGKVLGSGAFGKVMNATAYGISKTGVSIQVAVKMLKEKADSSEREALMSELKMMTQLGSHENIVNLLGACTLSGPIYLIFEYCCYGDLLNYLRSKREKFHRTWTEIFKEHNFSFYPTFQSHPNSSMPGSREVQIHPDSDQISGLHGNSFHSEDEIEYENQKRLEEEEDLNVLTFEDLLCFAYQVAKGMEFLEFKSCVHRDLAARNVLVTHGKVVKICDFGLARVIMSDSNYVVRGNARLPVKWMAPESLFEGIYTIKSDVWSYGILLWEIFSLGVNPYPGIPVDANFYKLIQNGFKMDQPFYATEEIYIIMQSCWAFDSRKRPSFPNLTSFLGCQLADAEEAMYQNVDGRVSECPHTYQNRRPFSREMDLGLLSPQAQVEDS", "test": "DiscoverX KINOMEscan competition binding assay, FLT3 ITD, D835V", "from_the_text": "(§1) Kinase binding data were obtained for various exemplary compounds prepared according to Examples 1-25 using the DiscoverX KINOMEscan® active site-directed competition binding site-directed assay protocol described below. […] As a result, the data report thermodynamic interaction affinities (Kd values), rather than IC50 values that are dependent on ATP concentrations. The assay uses a DNA-tagged version of the protein kinase, and an immobilized ligand bound to a solid support. Compounds that directly or indirectly prevent kinase binding to the immobilized ligand reduce the amount of kinase captured on the solid support, which is detected using an ultra-sensitive qPCR method. Affinity constants reported from the assay have been reported to be independent of the immobilized ligand used that is coupled to the solid support (See supplemental information in Fabian, M. A. et. al., (2005) Nat. Biotechnol. 23, 329-336; Wodicka, L. M. et. al., (2010) Chem. Biol. 17, 1241-1249.)\n(§2) Kinase-tagged T7 phage strains were prepared in an E. coli host derived from the BL21 strain. E. coli were grown to log-phase and infected with T7 phage and incubated with shaking at 32° C. until lysis. The lysates were centrifuged and filtered to remove cell debris. The remaining kinases were produced in HEK-293 cells and subsequently tagged with DNA for qPCR detection. […] The liganded beads were blocked with excess biotin and washed with blocking buffer (SeaBlock (Pierce), 1% BSA, 0.05% Tween 20, 1 mM DTT) to remove unbound ligand and to reduce non-specific binding. […] Test compounds were prepared as 111× stocks in 100% DMSO. Kds were determined using an 11-point 3-fold compound dilution series with three DMSO control points. […] The compounds were then diluted directly into the assays such that the final concentration of DMSO was 0.9%. All reactions were performed in polypropylene 384-well plates. Each was a final volume of 0.02 mL. […] The kinase concentration in the eluates was measured by qPCR.\n(§3) Binding constants (Kds) were calculated with a standard dose-response curve using the Hill equation. […]"}, "FLT3 N841I": {"target": "T2, FLT3 N841I (Homo sapiens, UniProt P36888, N841I)", "T2 construct": "purchased DiscoverX (KINOMEscan); host or cells: E. coli (T7 phage) or HEK-293", "T2 sequence (P36888 27-993 N841I)": "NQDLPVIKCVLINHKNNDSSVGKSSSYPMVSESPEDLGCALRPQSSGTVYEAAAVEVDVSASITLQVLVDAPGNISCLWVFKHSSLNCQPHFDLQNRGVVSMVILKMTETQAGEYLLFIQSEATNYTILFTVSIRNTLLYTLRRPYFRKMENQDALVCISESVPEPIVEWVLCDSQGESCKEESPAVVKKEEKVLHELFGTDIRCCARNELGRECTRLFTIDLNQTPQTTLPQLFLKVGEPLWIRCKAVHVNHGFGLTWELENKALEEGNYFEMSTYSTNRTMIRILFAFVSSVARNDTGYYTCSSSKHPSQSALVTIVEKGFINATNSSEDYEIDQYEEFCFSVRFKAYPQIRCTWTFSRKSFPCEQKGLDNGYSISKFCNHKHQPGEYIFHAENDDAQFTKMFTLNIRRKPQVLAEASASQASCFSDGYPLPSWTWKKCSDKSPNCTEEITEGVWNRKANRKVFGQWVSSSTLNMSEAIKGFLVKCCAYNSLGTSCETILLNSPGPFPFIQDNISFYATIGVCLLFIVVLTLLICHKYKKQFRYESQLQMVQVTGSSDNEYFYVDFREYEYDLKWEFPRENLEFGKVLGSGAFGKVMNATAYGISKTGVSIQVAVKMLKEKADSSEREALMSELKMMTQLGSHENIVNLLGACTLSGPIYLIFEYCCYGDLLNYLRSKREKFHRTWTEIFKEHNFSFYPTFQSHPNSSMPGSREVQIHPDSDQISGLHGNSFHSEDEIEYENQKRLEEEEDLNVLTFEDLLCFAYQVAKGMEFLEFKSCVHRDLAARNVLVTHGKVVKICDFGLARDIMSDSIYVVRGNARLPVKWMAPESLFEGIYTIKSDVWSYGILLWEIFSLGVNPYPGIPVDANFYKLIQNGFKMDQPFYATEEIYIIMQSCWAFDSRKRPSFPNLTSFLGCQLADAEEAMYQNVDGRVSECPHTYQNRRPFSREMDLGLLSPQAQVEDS", "test": "DiscoverX KINOMEscan competition binding assay, FLT3 N841I", "from_the_text": "as §1, §2, §3"}}, "note": "Like-named read-outs stand apart in the source and are kept apart here.", "data": [{"smiles": "COc1cc2ncc(-c3cccc(N[C@H]4CNCC[C@@H]4F)n3)n2nc1C1CC1", "note": "[Compound 102, 6-(6-cyclopropyl-7-methoxyimidazo[1,2-b]pyridazin-3-yl)-N-((3S,4S)-4-fluoropiperidin-3-yl)pyridin-2-amine]", "values": [{"measurement": "Kd", "setting": "FLT3 ITD, D835V; read-out: FLT3 ITD, D835V Kd", "result": 0.045, "unit": "nM"}, {"measurement": "Kd", "setting": "FLT3 N841I", "result": 0.36, "unit": "nM"}]}, {"smiles": "COc1cc2ncc(-c3cccc(N[C@@H]4CCNC4)n3)n2nc1C1CC1", "note": "[Compound 97, (R)-6-(6-cyclopropyl-7-methoxyimidazo[1,2-b]pyridazin-3-yl)-N-(pyrrolidin-3-yl)pyridin-2-amine]", "values": [{"measurement": "Kd", "setting": "FLT3 ITD, D835V; read-out: FLT3 ITD, D835V Kd", "result": 0.034, "unit": "nM"}, {"measurement": "Kd", "setting": "FLT3 N841I", "result": 0.55, "unit": "nM"}]}, {"smiles": "COc1cc2ncc(-c3cccc(N[C@H]4CNC[C@@H]4F)n3)n2nc1C1CC1", "note": "[Compound 96, 6-(6-cyclopropyl-7-methoxyimidazo[1,2-b]pyridazin-3-yl)-N-((3S,4S)-4-fluoropyrrolidin-3-yl)pyridin-2-amine]", "values": [{"measurement": "Kd", "setting": "FLT3 ITD, D835V", "result": 0.07, "unit": "nM"}, {"measurement": "Kd", "setting": "FLT3 N841I", "result": 0.91, "unit": "nM"}]}]}
